The record followed here is US20110015119A1, “NOVEL SEMI-SYNTHETIC GLYCOPEPTIDES AS ANTIBACTERIAL AGENTS” (LEAD THERAPEUTICS, INC., priority 2009, published 2011).

Broadly, the MIC is the smallest concentration in the dilution series that meets the test's criterion for growth inhibition.

≈ marks a conversion by molar mass, not a printed value. Like-named read-outs stand apart in the source and are kept apart here.

Assay type in all cases: cell-based
One test deals with Enterococcus faecium 800. The test is described as follows: MIC by broth microdilution, EFcm 800. How it is done: (§1) Antibacterial activity in vitro is investigated by broth microdilution method in Meuller-Hinton broth as recommended by NCCLS. All strains tested are clinical isolates either sensitive or resistant to natural glycopeptides. MIC values were determined using the CLSI-recommended broth microdilution procedure (Clinical and Laboratory Standards Institute, Methods for Dilution Antimicrobial Susceptibility Tests for Bacteria That Grow Aerobically; Approved Standard-Seventh Edition.). Automated liquid handlers (Multidrop 384, Labsystems, Helsinki, Finland; Biomek 2000 and Multimek 96, Beckman Coulter, Fullerton Calif.) were used to conduct serial dilutions and liquid transfers. The MIC value for vancomycin is given for comparison. The abbreviations for organisms tested are as follow: SA 100—Staphylococcus aureus 100 (ATCC 29213); SA 757—Staphylococcus aureus 757 (MRSA); SA 2012—Staphylococcus aureus 2012 (VISA); SE 835—Staphylococcus epidermidis 835; SE 831—Staphylococcus epidermidis 831 (MRSE); EFc 101—Enterococcus faecalis 101 (ATCC 29212); EFc 848—Enterococcus faecalis 848 (VRE, Van A); EFcm 800—Enterococcus faecium 800; EFcm 752—Enterococcus faecium 752 (VRE, Van A); SPNE 1195—Streptococcus pneumoniae 1195 (ATCC 49619); SPY 712—Streptococcus pyogenes 712.

The subject of test [1] is Staphylococcus aureus 757 (MRSA). Nature of the test: MIC by broth microdilution, SA 757. To be noted: read-out: MIC SA 757. How it is done: as §1
For orientation: In broth dilution the organism is exposed to a series of concentrations in liquid medium.

Test [2] deals with Staphylococcus epidermidis 835. The test is described as follows: MIC by broth microdilution, SE 835. As to the method:
as §1

Test [3] concerns Streptococcus pyogenes 712. The test is described as follows: MIC by broth microdilution, SPY 712. As to the method: as §1
In test [4] the test system is Staphylococcus aureus 2012 (VISA). Nature of the test: MIC by broth microdilution, SA 2012. To be noted: class symbols. As to the method:
as §1

In test [5] the test system is Enterococcus faecalis 848 (VRE, Van A). The test is described as follows: MIC by broth microdilution, EFc 848. To be noted: class symbols. As to the method:
as §1

Test [6] concerns Staphylococcus epidermidis 831 (MRSE). Nature of the test: MIC by broth microdilution, SE 831. The settings on record: read-out: MIC SE 831. How it is done: as §1
The test system of test [7] is Enterococcus faecalis 101 (ATCC 29212). The test is described as follows: MIC by broth microdilution, EFc 101. The settings on record: class symbols. How it is done: as §1
The subject of test [8] is Staphylococcus aureus 100 (ATCC 29213). Nature of the test: MIC by broth microdilution, SA 100. How it is done: as §1
The test system of test [9] is Enterococcus faecium 752 (VRE, Van A). The test is described as follows: MIC by broth microdilution, EFcm 752. The settings on record: class symbols. As to the method: as §1
Test [10] deals with Streptococcus pneumoniae 1195 (ATCC 49619). Nature of the test: MIC by broth microdilution, SPNE 1195. How it is done:
as §1

The mark [11] stands for this setting: Enterococcus faecium, 800, read-out: MIC E FCM 800.
Where [12] appears, read: Staphylococcus epidermidis, 835, read-out: MIC SE 835.
Where [13] appears, read: Streptococcus pyogenes, 712, read-out: MIC S PYO 712.
Where [14] appears, read: Staphylococcus aureus, VISA, read-out: MIC SA 2012, Staphylococcus aureus 2012 (VISA).
The mark [15] stands for this setting: Enterococcus faecalis, VRE, read-out: MIC E FC 848, Enterococcus faecalis 848 (VRE, Van A).
Where [16] appears, read: Staphylococcus epidermidis, MRSE.
The mark [17] stands for this setting: Enterococcus faecalis, ATCC29212, read-out: MIC E FC 101, Enterococcus faecalis 101 (ATCC 29212).
The mark [18] stands for this setting: Staphylococcus aureus, ATCC29213, read-out: MIC SA 100.
Where [19] appears, read: Enterococcus faecium, VRE, read-out: MIC E FCM 752, Enterococcus faecium 752 (VRE, Van A).
Where [20] appears, read: Streptococcus pneumoniae, ATCC49619, read-out: MIC S PNE 1195.

As for `CCCCCCOc1ccc(S(=O)(=O)NCCCCCCNC(=O)Oc2cc(O)c3c(c2)[C@@H](C(=O)O)NC(=O)[C@H]2NC(=O)[C@H](NC(=O)[C@@H]4NC(=O)[C@H](CC(N)=O)NC(=O)[C@H](NC(=O)[C@@H](CC(C)C)NC)[C@H](O)c5ccc(c(Cl)c5)Oc5cc4cc(c5O[C@@H]4O[C@H](CO)[C@@H](O)[C@H](O)[C@H]4O[C@H]4C[C@](C)(N)[C@H](O)[C@H](C)O4)Oc4ccc(cc4Cl)[C@H]2O)c2ccc(O)c-3c2)cc1` (atropisomer, axis not shown) [Compound 349], the MIC fell in the range of 0.01 to 0.5 µg/mL (≈ 0.00546 to 0.273 µM) in the test with Enterococcus faecium 800 (setting [11]); 0.01 to 0.5 µg/mL (≈ 0.00546 to 0.273 µM) in test [1] (Staphylococcus aureus, MRSA); 0.01 to 0.5 µg/mL (≈ 0.00546 to 0.273 µM) in test [2] (setting [12]); 0.01 to 0.5 µg/mL (≈ 0.00546 to 0.273 µM) in test [3] (setting [13]); 0.5 to 1 µg/mL (≈ 0.273 to 0.546 µM) in test [4] (setting [14]); 4 to 8 µg/mL (≈ 2.18 to 4.37 µM) in test [5] (setting [15]). Moreover, the MIC in test [6] (setting [16]) was 0.01 to 0.5 µg/mL (≈ 0.00546 to 0.273 µM); in [7] (setting [17]) it was 0.01 to 0.5 µg/mL (≈ 0.00546 to 0.273 µM); in test [8] (setting [18]) it was 0.01 to 0.5 µg/mL (≈ 0.00546 to 0.273 µM); in [9] (setting [19]) it was 0.5 to 1 µg/mL (≈ 0.273 to 0.546 µM); in [10] (setting [20]), 0.01 to 0.5 µg/mL (≈ 0.00546 to 0.273 µM).
Regarding `CCCCCCc1ccc(S(=O)(=O)NCCCCCCNCc2c(O)cc3c(c2O)-c2cc(ccc2O)[C@H]2NC(=O)[C@@H]4NC(=O)[C@H](CC(N)=O)NC(=O)[C@H](NC(=O)[C@@H](CC(C)C)NC)[C@H](O)c5ccc(c(Cl)c5)Oc5cc4cc(c5O[C@@H]4O[C@H](CO)[C@@H](O)[C@H](O)[C@H]4O[C@H]4C[C@](C)(NC(N)=O)[C@H](OC(N)=O)[C@H](C)O4)Oc4ccc(cc4Cl)[C@@H](O)[C@H](NC2=O)C(=O)N[C@@H]3C(=O)O)cc1` (atropisomer, axis not shown) [Compound 370], the MIC in the test on Enterococcus faecium 800 (Enterococcus faecium 800, class symbols, read-out: MIC E FCM 800) was 0.01 to 0.5 µg/mL (≈ 0.0053 to 0.265 µM); in test [1] (Staphylococcus aureus 757 (MRSA), class symbols), 0.01 to 0.5 µg/mL (≈ 0.0053 to 0.265 µM); in test [2] (Staphylococcus epidermidis 835, class symbols, read-out: MIC SE 835), 0.01 to 0.5 µg/mL (≈ 0.0053 to 0.265 µM); in test [3] (Streptococcus pyogenes 712, class symbols, read-out: MIC S PYO 712) it was 0.01 to 0.5 µg/mL (≈ 0.0053 to 0.265 µM); in test [4] (Staphylococcus aureus 2012 (VISA), read-out: MIC SA 2012), 0.01 to 0.5 µg/mL (≈ 0.0053 to 0.265 µM); in [5] (Enterococcus faecalis 848 (VRE, Van A), read-out: MIC E FC 848), over 16 µg/mL. The MIC was in the range of 0.01 to 0.5 µg/mL (≈ 0.0053 to 0.265 µM) in test [6] (Staphylococcus epidermidis 831 (MRSE), class symbols); 0.01 to 0.5 µg/mL (≈ 0.0053 to 0.265 µM) in [7] (ATCC29212, Enterococcus faecalis 101 (ATCC 29212), read-out: MIC E FC 101); 0.01 to 0.5 µg/mL (≈ 0.0053 to 0.265 µM) in [8] (ATCC29213, Staphylococcus aureus 100 (ATCC 29213), class symbols, read-out: MIC SA 100); 4 to 8 µg/mL (≈ 2.12 to 4.24 µM) in test [9] (Enterococcus faecium 752 (VRE, Van A), read-out: MIC E FCM 752); 0.01 to 0.5 µg/mL (≈ 0.0053 to 0.265 µM) in test [10] (ATCC49619, Streptococcus pneumoniae 1195 (ATCC 49619), class symbols, read-out: MIC S PNE 1195).
Consider `CCCCCCc1ccc(NC(=O)NCCCCCCNC(=O)Oc2cc(O)c3c(c2)[C@@H](C(=O)O)NC(=O)[C@H]2NC(=O)[C@H](NC(=O)[C@@H]4NC(=O)[C@H](CC(N)=O)NC(=O)[C@H](NC(=O)[C@@H](CC(C)C)NC)[C@H](O)c5ccc(c(Cl)c5)Oc5cc4cc(c5O[C@@H]4O[C@H](CO)[C@@H](O)[C@H](O)[C@H]4O[C@H]4C[C@](C)(N)[C@H](O)[C@H](C)O4)Oc4ccc(cc4Cl)[C@H]2O)c2ccc(O)c-3c2)cc1` (atropisomer, axis not shown) [Compound 354], for which the MIC lay within 0.01 to 0.5 µg/mL (≈ 0.00557 to 0.279 µM) with Enterococcus faecium 800 (setting [11]); 0.01 to 0.5 µg/mL (≈ 0.00557 to 0.279 µM) in [1] (Staphylococcus aureus, MRSA); 0.01 to 0.5 µg/mL (≈ 0.00557 to 0.279 µM) in [2] (setting [12]); 0.01 to 0.5 µg/mL (≈ 0.00557 to 0.279 µM) in [3] (setting [13]); 0.5 to 1 µg/mL (≈ 0.279 to 0.557 µM) in test [4] (setting [14]); 2 to 4 µg/mL (≈ 1.11 to 2.23 µM) in test [5] (setting [15]). For the same compound, the minimal inhibitory concentration (MIC) in [6] (setting [16]), in [7] (setting [17]), in test [8] (setting [18]), in test [9] (setting [19]) and in test [10] (setting [20]) was 0.01 to 0.5 µg/mL (≈ 0.00557 to 0.279 µM) throughout.
